The values below come from publication PMC11584170 (ACS chemical biology, 2023).

In one series the target is T1, ERRγ (Homo sapiens, UniProt P62508).
T1 sequence (P62508 1-458): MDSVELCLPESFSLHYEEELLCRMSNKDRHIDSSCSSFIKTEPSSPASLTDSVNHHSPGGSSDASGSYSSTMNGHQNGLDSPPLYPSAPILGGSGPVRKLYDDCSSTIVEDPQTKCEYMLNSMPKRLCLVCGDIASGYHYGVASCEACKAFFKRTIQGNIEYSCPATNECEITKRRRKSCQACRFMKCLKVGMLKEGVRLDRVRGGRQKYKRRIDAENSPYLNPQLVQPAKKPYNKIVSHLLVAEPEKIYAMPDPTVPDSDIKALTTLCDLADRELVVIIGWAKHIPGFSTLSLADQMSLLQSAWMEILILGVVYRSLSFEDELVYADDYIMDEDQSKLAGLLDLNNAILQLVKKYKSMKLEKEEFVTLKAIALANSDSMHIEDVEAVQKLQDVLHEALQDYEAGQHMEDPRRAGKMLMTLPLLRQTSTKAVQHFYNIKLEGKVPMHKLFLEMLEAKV
Briefly: full-length ERR cell-based cotransfection/reporter assay in HEK293 cells. The note with it: full-length ERR cotransfection.

Another series addresses T2, ERRβ (Homo sapiens, UniProt O95718).
T2 sequence (O95718 1-433): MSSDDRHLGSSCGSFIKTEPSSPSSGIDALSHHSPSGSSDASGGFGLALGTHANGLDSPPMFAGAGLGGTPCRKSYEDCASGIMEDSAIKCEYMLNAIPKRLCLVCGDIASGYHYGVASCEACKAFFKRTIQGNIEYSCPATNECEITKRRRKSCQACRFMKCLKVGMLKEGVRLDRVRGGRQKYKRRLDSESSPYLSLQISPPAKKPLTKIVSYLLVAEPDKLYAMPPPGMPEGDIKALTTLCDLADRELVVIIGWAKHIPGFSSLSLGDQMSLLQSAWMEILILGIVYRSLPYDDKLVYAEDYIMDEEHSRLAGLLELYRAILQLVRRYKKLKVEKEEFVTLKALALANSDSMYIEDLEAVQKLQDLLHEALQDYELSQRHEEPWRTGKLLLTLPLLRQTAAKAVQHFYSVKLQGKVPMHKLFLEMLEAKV
The description is as above. As to conditions: read-out: ERRβ EC50.

A further series deals with T3, ERRα (Homo sapiens, UniProt P11474).
T3 sequence (P11474 1-423): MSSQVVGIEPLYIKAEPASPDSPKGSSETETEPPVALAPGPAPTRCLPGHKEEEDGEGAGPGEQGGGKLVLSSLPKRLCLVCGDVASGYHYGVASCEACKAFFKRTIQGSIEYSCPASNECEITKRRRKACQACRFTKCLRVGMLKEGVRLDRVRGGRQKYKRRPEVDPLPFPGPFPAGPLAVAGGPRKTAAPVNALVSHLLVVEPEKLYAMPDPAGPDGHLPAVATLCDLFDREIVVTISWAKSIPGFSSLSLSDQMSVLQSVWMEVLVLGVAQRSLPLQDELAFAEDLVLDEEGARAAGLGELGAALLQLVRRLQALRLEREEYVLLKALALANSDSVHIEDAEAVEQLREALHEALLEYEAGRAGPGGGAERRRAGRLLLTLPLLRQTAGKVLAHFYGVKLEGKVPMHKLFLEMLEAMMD
Described as above.

For the next series, the system named is C57BL/6J male mice. The series is described as follows: acute single dose, Ddit4 and Slc25a25 expression in skeletal muscle. In kind it is in vivo.
The target of another series is T4, ERRγ LBD (Homo sapiens, UniProt P62508).
T4 sequence (P62508 233-457 limits assumed): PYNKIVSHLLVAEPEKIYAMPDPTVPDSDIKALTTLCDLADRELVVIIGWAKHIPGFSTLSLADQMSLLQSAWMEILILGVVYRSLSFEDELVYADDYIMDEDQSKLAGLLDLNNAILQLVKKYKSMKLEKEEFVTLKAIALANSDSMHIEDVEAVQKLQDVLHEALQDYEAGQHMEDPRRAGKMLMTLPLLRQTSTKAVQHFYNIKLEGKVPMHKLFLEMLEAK
Briefly: differential scanning fluorimetry. As to conditions: direct binding. (DSF heats the sample and reads unfolding from a dye or from intrinsic fluorescence.)

The subject of series [1] is mERRα fl/fl and mERRα−/− mice. The series is described as follows: exercise endurance in muscle-specific ERRα KO mice. In kind it is in vivo.
The test system of series [2] is C2C12 cells. The series is described as follows: Ddit4 gene expression in C2C12 myoblast cell line. Type of series: cell-based, mouse. The note with it: C2C12, 10 μM, 1 or 3 h.
The test system of series [3] is mice. Briefly: circadian locomotor activity. In kind it is in vivo. As to conditions: drug treatment.
The subject of a further series is Gal4-ERR LBD. Briefly: Gal4-ERR LBD chimeric cotransfection assay. In kind it is cell-based.
Another series relates to C57BL/6J mice. The series is described as follows: chronic treatment, skeletal muscle histology and protein/gene expression. In kind it is in vivo.
The test system of the next series is primary mouse myocytes. The series is described as follows: Ddit4 and Slc25a25 expression in primary myocytes. In kind it is cell-based.
Series [4] can be described thus: tolerability in mice, 10 days dosing. In kind it is in vivo.
For series [5] the following is noted: model of heart failure ref 38; cited from earlier work.
In series [6] the test system is C2C12 cells. Briefly: MitoTracker Red staining of C2C12 cells. The note with it: proliferating C2C12, 10 μM, 24 h. Type of series: cell-based, mouse.
Series [7] relates to mice. The series is described as follows: grip strength test. As to conditions: sedentary mice, 50 mg/kg, 2 weeks. In kind it is in vivo.
Series [8] concerns C2C12 cells. The series is described as follows: ERR target gene. In kind it is cell-based, mouse. As to conditions: C2C12, 24 h dose-response.
The next series concerns C57BL6/J mice. The series is described as follows: exercise until exhaustion on rodent treadmill, WT mice. Type of series: in vivo. The note with it: sedentary mice, 7 days b.i.d. i.p. 50 mg/kg, run to exhaustion.
Where [9] appears, read: 14 days b.i.d., i.p, 50 mg/kg, exercise until exhaustion.
Where [10] appears, read: quadricep, not induced in mERRα−/−.
Where [11] appears, read: 50 mg/kg b.i.d., gastrocnemius muscle.

The structures appear in SMILES notation. Where only a bound is given, the exact number is not on record here.

Turning to `CC/C(=C(\c1ccc(O)cc1)c1ccc(OCCN(C)C)cc1)c1ccccc1` [4-hydroXytamoXifen], at ERRγ, the “inhibition of ERRγ constitutive activity” value was ~75%.
With `CC(C)c1ccc(/C=N/NC(=O)c2ccc(O)cc2)cc1` [GSK4716], the EC50 on ERRβ is > 5 µM; at ERRα (read-out: ERRα EC50, full-length ERR, HEK293), > 5 µM. Moreover, the ERRα agonist activity entry on ERRα (ERR cotransfection assay) is “very weak agonist activity”.
As to `O=C(N/N=C/c1ccc2ccccc2c1)c1ccc(O)cc1` [SLU-PP-332, (E)-4-Hydroxy-N′-(naphthalen-2-ylmethylene)benzohydrazide], the “DDIT4 protein expression level” value with C57BL/6J male mice (quadricep muscle, 3 h post 50 mg/kg i.p.) came out at 3.5 ×. The “increase in Ddit4 expression” value with C57BL/6J male mice (sedentary mice, single dose 50 mg/kg i.p., 1 h) was ~3 fold. Besides, in the series with C57BL/6J male mice (single dose 50 mg/kg i.p. and treadmill run, 1 h), the “increase in Ddit4 expression, drug plus exercise” value is recorded as ~11 fold. Moreover, the “increase in Slc25a25 expression” value in the series on C57BL/6J male mice (single dose 50 mg/kg i.p., 1 h) is reported as 11 fold. The “thermal stability of purified ERRγ LBD” value on ERRγ LBD was “dose-dependently increased the thermal stability”. In [1] (setting [9]), the “exercise endurance, mERRα fl/fl mice” value was “significantly enhanced exercise endurance” and the “exercise endurance, mERRα−/− mice” value is “equivalent to vehicle-treated”. In addition, the “upregulation of Ddit4 in quadriceps” value in series [1] (mERRα fl/fl vs mERRα−/− mice) was “observed only in mERRα^fl/fl”. For the same compound, in series [1] (setting [10]), the “Alas2 expression, mERRα fl/fl mice” value is reported as “significantly induced” and the “Per1 expression, mERRα fl/fl mice” value is “significantly induced”. Further, in the series on C2C12 cells [2], the Ddit4 gene expression result is recorded as “induced”. Also, the circadian locomotor activity result in the series on mice [3] was “no alterations”. Also, in the series on Gal4-ERR LBD, the “activity at ERRs” value was “displayed activity at all ERRs”. In the series with C57BL/6J mice (50 mg/kg b.i.d. i.p., 15 days, quadricep), the “oxidative muscle phenotype (SDH staining)” value is reported as “greater SDH staining”. The “myofiber diameter (laminin staining)” value in the series with C57BL/6J mice (50 mg/kg b.i.d., 15 days) was “smaller in diameter”. Further, in the series with C57BL/6J mice (setting [11]), the “complex I (NDUFB8) and complex V (ATP5A) expression” value was “increase”; the “cytochrome c protein expression” value is on record as “increase”. In the series with C57BL/6J mice (quadriceps), the “Myosin IIA protein (western blot)” value is reported as “increased expression” and the “expression of Myh6” value is on record as “increase”. In the series with C57BL/6J mice (quadriceps, 50 mg/kg b.i.d.), the “oxidative type IIa muscle fibers” value is on record as “increased”. The “mitochondria content (electron micrographs of quadriceps)” value with C57BL/6J mice (vs vehicle-treated) is “increase”. In the series with primary mouse myocytes (1 μM, 2 h), the “effect on Ddit4 expression in ERRα or ERRα/γ null myocytes” value is “lost” and the “effect on Ddit4 expression in ERRγ null myocytes” value is recorded as “retained”. Besides, the “Ddit4 expression, 2 h” value in the series with primary mouse myocytes (primary mouse myocytes, 1 μM, 2 h) is on record as “induced”. In addition, the “Ddit4 induction, 24 h” value with primary mouse myocytes (primary mouse myocytes, 1 μM, 24 h) is “not observed”. The “expression of Slc25a25” value in the series on primary mouse myocytes (primary myocytes, 1 μM, 2 h) is “induced”. Further, the “ERRα dependence of Slc25a25 responsiveness” value with primary mouse myocytes (primary myocytes, WT vs KO) is reported as “completely ERRα-dependent”. Further, in series [4] (50 mg/kg b.i.d., i.p., 10 days), the “complete blood count and electrolyte levels” value is given as “normal”; the overt toxicity result is listed as “no overt toxicity”. Further, the serum creatine kinase result in series [4] (skeletal muscle toxicity marker) is recorded as “no significant alterations”. Besides, the improving heart function result in series [5] is reported as “very effective”. In the series with C2C12 cells [6], the “mitochondrial biogenesis (MitoTracker Red)” value is given as “substantially induced”. Moreover, in the series with mice [7], the grip strength result is on record as “increase”. In addition, in the series with C2C12 cells [8], the “expression of Pdk4” value was “clear increase”. For the same compound, in the series with C57BL6/J mice, the “increase in running distance vs vehicle” value is on record as ~45% and the “increase in running time vs vehicle” value is ~70%.

Broadly, the EC50 is the concentration at which the effect is half-maximal.
